From patent US8952024B2, “Herbicidal pyrimidone derivatives” (E I du Pont de Nemours and Company, priority 2009, dated 2015)

Assays:
Experiment in all cases: Test B pre-/postemergence plant response
Assay type in all cases: in vivo
wild oat (Avena fatua) = conditions: for Oat, Wild plant response rating (0 to 100 scale): 0 is no effect
How it was run: (§1)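 Response scores were assigned visually after 13 to 15 days in a greenhouse, comparing treated pots with controls on a 0–100 scale where 100 denotes complete control. Preemergence treatments went onto freshly seeded loam/sand soil; postemergence treatments onto plants 2 to 18 cm tall.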

[1] = system: sunflower (common oilseed sunflower, Helianthus annuus); conditions: Preemergence
How it was run: as §1

[2] = system: galium (catchweed bedstraw, Galium aparine)
How it was run: as §1

[3] = system: nightshade (eastern black nightshade, Solanum ptycanthum); conditions: Preemergence
How it was run: as §1

[4] = Postemergence, 62 g ai/ha, scale 0 (no effect) to 100 (complete control), 13 to 15 days
[5] = Postemergence, 125 g ai/ha, visual rating after 13 to 15 days, scale 0 (no effect) to 100 (complete control)
[6] = 31 g ai/ha, postemergence, scale 0 to 100, 0 is no effect, 100 is complete control
[7] = Postemergence, 250 g ai/ha, scale 0 to 100 (0 no effect, 100 complete control)
[8] = Preemergence, 31 g ai/ha, scale 0 to 100 (0 no effect, 100 complete control)
[9] = Preemergence, 62 g ai/ha, scale 0 to 100 (0 no effect, 100 complete control)
[10] = Preemergence, 125 g ai/ha, scale 0 to 100, 0 no effect, 100 complete control
[11] = 250 g ai/ha, Preemergence, 0 to 100 scale
[12] = 31 g ai/ha, scale 0 to 100 (0 no effect, 100 complete control)
[13] = 62 g ai/ha, scale 0 to 100 (0 no effect, 100 complete control)
[14] = 125 g ai/ha, scale 0 to 100, 0 no effect, 100 complete control
[15] = 62 g ai/ha, postemergence, 100 is complete control, 13 to 15 days
[16] = Preemergence, 250 g ai/ha, 0 to 100 scale
[17] = Postemergence, 31 g ai/ha, 0 to 100 scale (0 no effect, 100 complete control)
[18] = Postemergence, 125 g ai/ha, scale 0 to 100 (0 no effect, 100 complete control)
[19] = Postemergence, 250 g ai/ha, scale 0 to 100 (0 no effect, 100 complete control), 13 to 15 days
[20] = Postemergence, 62 g ai/ha, scale 0 to 100 (0 no effect, 100 complete control)

Compound	Plant response rating, Oat, Wild (wild oat (Avena fatua); [4])	Plant response rating, Oat, Wild (wild oat (Avena fatua); [5])	Plant response rating, Oat, Wild (wild oat (Avena fatua); [6])	Plant response rating, Oat, Wild (wild oat (Avena fatua); [7])	Plant response rating, Oat, Wild (wild oat (Avena fatua); [8])	Plant response rating, Oat, Wild (wild oat (Avena fatua); [9])	Plant response rating, Oat, Wild (wild oat (Avena fatua); [10])	Plant response rating, Galium [2, 11]	Plant response rating, Galium [2, 8]	Plant response rating, Galium [2, 9]	Plant response rating, Galium [2, 10]	Plant response rating, Nightshade [3, 12]	Plant response rating, Nightshade [3, 13]	Plant response rating, Nightshade [3, 14]	Plant response rating, Sunflower [1, 12]	Plant response rating, Sunflower [1, 13]	Plant response rating, Sunflower [1, 14]	Plant response rating, Oat, Wild (wild oat (Avena fatua); [17])	Plant response rating, Oat, Wild (wild oat (Avena fatua); [19])	Plant response rating, Galium [2, 17]	also measured
5-[(2-hydroxy-6-oxo-1-cyclohexen-1-yl)carbonyl]-2,3-diphenyl-4(3H)-pyrimidinone [Compound 2]	5	10																			Plant response rating, Oat, Wild (wild oat (Avena fatua); Postemergence, 31 g ai/ha, scale 0 to 100 (0 no effect, 100 complete control)): 5; Oat, Wild plant response rating (wild oat (Avena fatua); Postemergence, 250 g ai/ha, scale 0 to 100): 10; Sunflower plant response rating (0 to 100 scale) ([1]; 0 is no effect, 100 is complete control, rated after 13 to 15 days, application rate of this section not shown): 0
Cc1cc(-n2c(-c3ccccc3)ncc(C(=O)C3=C(O)CCCC3=O)c2=O)ccc1F [Compound 53]	70	85	50	85	0	0	0	90	0	0	0	98	98	100	15	55	65				
Cn1c(-c2ccccc2)ncc(C(=O)C2=C(O)CCCC2=O)c1=O [Compound 55]	0	0	0	5	0	0	0	85	0	0	20	60	98	100	10	60	60				
O=C1CCCC(O)=C1C(=O)c1cnc(-c2ccsc2)n(-c2ccccc2)c1=O [Compound 56]	20	40	5	45	0	0	0	85	0	0	60	85	98	98	0	60	65				
CCCCc1ncc(C(=O)C2=C(O)CCCC2=O)c(=O)n1-c1cccc(C)c1 [Compound 63]	0	5	0	20	0	0	0	20	0	0	0	80	95	98	5	15	20				
O=C1CCCC(O)=C1C(=O)c1cnc(-c2cccc(Cl)c2)n(-c2ccc(Cl)cc2)c1=O [Compound 64]	90	95	60	98	0	0	0	70	0	0	30	55	85	95	0	0	0				
CCCCc1ncc(C(=O)C2=C(O)CCCC2=O)c(=O)n1-c1ccc(C)cc1 [Compound 67]		10	0	10	0	0	0	90	0	35	85	70	95	95	0	20	35				Oat, Wild plant response rating (0 to 100 scale) (wild oat (Avena fatua); [15]): 5
CCCc1ncc(C(=O)C2=C(O)CCCC2=O)c(=O)n1-c1ccccc1C [Compound 73]		80	55	95	0	0	0	85		30	80	75	95	98	0	20	70				Oat, Wild plant response rating (0 to 100 scale) (wild oat (Avena fatua); [15]): 80
CCCc1ncc(C(=O)C2=C(O)CCCC2=O)c(=O)n1CC1CCCO1 (stereo not shown) [Compound 74]		60	20	80	0	0	5		20	30	40	85	98	98	0	55	70				Oat, Wild plant response rating (0 to 100 scale) (wild oat (Avena fatua); [15]): 20; Oat, Wild plant response rating (wild oat (Avena fatua); [16]): 5; Galium plant response rating [2, 16]: 98; Nightshade plant response rating ([3]; 250 g ai/ha, 0 to 100 scale): 100; Sunflower plant response rating ([1]; 250 g ai/ha, 0 to 100 scale): 85
O=C1CCCC(O)=C1C(=O)c1cnc(-c2cccc(F)c2)n(C2CCCCC2)c1=O [Compound 187]																		10	45	20	Plant response rating, Oat, Wild (wild oat (Avena fatua); [18]): 45; Plant response rating, Galium [2, 18]: 55; Plant response rating, Galium [2, 19]: 85
O=C1CCCC(O)=C1C(=O)c1cnc(-c2cccs2)n(C2CCCCC2)c1=O [Compound 189]																		5	25	20	Plant response rating, Oat, Wild (wild oat (Avena fatua); [18]): 10; Plant response rating, Galium [2, 18]: 85; Plant response rating, Galium [2, 19]: 85
CCCn1c(-c2cccc(Cl)c2)ncc(C(=O)C2=C(O)CCCC2=O)c1=O [Compound 190]																		0	50	50	Plant response rating, Oat, Wild (wild oat (Avena fatua); [18]): 40; Plant response rating, Galium [2, 18]: 60; Plant response rating, Galium [2, 19]: 85
Cc1cc(-n2c(-c3cccc(F)c3)ncc(C(=O)C3=C(O)CCCC3=O)c2=O)ccc1F [Compound 191]																		50	80	20	Plant response rating, Oat, Wild (wild oat (Avena fatua); [20]): 60; Plant response rating, Oat, Wild (wild oat (Avena fatua); [18]): 70; Plant response rating, Galium [2, 20]: 40; Plant response rating, Galium [2, 18]: 60; Plant response rating, Galium [2, 19]: 60
O=C1CCCC(O)=C1C(=O)c1cnc(-c2ccc(F)cc2)n(C2CCCCC2)c1=O [Compound 197]																		40	85	75	Plant response rating, Oat, Wild (wild oat (Avena fatua); [20]): 40; Plant response rating, Galium [2, 20]: 75; Plant response rating, Galium [2, 19]: 80
